Values of other authors, collected in patent US11122797B2, “Pest repellent material” (JGC CATALYSTS AND CHEMICALS LTD., priority 2017, dated 2021).

Conditions: within 6 hours

CCN(CC)C(=O)c1cccc(C)c1 [DEET, N, N-diethyl-m-toluamide]
DEET applied to the skin transdermally absorbed: about 50%
